Results published in ChEMBL document CHEMBL1131645, “Synthesis and activity studies of N-[omega-N'-(adamant-1'-yl)aminoalkyl]- 2-(4'-dimethylaminophenyl)acetamides: in the search of selective inhibitors for the different molecular forms of acetylcholinesterase” (Bioorg Med Chem Lett, 1998).

Experiments:
[1] = molecular target: T1, Acetylcholinesterase (Bos taurus, UniProt P23795); experiment: Compound was evaluated for the inhibition of acetylcholinesterase (AChE) in bovine erythrocytes; format: cell-based
T1 sequence (P23795 whole entry): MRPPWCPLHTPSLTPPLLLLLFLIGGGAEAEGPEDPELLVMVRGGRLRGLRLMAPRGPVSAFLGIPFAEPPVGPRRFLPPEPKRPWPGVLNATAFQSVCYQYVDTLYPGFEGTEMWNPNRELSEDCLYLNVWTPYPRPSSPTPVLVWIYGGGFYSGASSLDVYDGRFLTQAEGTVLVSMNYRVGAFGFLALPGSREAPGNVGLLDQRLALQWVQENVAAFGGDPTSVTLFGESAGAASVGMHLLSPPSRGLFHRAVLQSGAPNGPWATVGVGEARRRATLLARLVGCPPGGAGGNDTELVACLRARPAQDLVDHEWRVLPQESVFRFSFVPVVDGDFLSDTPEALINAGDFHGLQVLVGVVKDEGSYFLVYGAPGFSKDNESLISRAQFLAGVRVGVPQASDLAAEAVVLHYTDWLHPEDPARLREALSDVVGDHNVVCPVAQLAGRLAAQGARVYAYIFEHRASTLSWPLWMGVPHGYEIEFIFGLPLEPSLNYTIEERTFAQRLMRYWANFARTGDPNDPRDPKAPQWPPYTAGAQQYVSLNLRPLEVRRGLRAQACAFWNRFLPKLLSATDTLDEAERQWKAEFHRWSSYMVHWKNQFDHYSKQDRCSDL

[2] = molecular target: Acetylcholinesterase (Homo sapiens, UniProt P22303)
Chain of Acetylcholinesterase (Homo sapiens, UniProt P22303) (P22303 whole entry): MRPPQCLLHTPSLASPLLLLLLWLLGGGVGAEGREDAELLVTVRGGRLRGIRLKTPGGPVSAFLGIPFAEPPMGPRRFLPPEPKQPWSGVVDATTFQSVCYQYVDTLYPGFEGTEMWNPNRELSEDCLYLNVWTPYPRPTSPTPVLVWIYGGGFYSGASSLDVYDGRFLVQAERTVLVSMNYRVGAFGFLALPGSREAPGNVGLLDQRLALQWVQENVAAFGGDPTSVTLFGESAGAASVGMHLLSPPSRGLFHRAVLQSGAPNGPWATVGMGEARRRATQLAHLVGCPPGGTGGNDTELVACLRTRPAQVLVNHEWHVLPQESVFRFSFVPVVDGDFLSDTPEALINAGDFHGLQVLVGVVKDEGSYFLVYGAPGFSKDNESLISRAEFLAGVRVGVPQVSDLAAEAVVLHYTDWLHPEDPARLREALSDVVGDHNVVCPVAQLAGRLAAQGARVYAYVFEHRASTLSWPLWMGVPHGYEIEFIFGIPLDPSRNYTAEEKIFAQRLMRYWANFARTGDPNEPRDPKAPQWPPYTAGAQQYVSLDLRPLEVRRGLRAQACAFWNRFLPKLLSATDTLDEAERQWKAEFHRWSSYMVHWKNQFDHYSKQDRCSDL
Description: Compound was evaluated for the inhibition of acetylcholinesterase (AChE) in human erythrocytes

[3] = molecular target: Acetylcholinesterase (Torpedo californica) (UniProt P04058); experiment: Compound was evaluated for non-competitive inhibition constant of acetylcholinesterase (AChE) from Torpedo californica; conditions: Tetronarce californica
Chain of Acetylcholinesterase (Torpedo californica) (P04058 22-564 limits assumed): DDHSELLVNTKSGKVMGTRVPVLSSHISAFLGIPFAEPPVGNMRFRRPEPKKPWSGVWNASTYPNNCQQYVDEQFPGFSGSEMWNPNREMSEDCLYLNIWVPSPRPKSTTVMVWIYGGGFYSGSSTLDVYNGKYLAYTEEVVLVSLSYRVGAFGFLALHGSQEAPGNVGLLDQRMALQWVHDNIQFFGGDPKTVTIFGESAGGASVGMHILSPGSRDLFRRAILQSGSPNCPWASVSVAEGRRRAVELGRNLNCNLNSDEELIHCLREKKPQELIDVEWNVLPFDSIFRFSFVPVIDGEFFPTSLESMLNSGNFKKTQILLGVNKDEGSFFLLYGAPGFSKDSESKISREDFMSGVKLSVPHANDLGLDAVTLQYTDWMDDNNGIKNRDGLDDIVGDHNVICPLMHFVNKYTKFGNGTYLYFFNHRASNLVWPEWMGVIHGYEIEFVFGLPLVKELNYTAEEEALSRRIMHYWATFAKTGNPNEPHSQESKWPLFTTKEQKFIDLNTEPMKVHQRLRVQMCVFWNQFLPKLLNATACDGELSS

[4] = molecular target: T2, Acetylcholinesterase (Electrophorus electricus, UniProt O42275)
T2 sequence (O42275 whole entry): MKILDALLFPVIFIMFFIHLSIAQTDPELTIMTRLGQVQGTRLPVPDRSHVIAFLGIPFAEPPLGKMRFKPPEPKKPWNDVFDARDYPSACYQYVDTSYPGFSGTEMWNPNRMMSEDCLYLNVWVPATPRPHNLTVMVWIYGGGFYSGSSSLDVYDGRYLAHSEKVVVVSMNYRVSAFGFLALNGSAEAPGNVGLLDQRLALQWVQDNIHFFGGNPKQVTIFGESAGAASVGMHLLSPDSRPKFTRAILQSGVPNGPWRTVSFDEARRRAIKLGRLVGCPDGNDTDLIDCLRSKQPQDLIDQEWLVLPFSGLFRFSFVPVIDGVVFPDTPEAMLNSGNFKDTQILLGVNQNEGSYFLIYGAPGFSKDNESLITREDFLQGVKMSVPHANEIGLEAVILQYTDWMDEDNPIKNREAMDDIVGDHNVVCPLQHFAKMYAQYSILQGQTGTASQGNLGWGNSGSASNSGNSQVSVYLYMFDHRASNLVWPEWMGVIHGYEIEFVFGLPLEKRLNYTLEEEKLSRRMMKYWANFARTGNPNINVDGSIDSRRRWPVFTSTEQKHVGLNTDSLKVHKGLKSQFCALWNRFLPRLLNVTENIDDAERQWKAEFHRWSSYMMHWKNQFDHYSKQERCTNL
Description: Compound was evaluated for the inhibition of acetylcholinesterase (AChE) in electric eel

[5] = molecular target: T3, Acetylcholinesterase (Torpedo californica, UniProt P04058); experiment: Compound was evaluated for the inhibition of acetylcholinesterase in Torpedo californica; set-up: species or system Tetronarce californica
T3 sequence (P04058 whole entry): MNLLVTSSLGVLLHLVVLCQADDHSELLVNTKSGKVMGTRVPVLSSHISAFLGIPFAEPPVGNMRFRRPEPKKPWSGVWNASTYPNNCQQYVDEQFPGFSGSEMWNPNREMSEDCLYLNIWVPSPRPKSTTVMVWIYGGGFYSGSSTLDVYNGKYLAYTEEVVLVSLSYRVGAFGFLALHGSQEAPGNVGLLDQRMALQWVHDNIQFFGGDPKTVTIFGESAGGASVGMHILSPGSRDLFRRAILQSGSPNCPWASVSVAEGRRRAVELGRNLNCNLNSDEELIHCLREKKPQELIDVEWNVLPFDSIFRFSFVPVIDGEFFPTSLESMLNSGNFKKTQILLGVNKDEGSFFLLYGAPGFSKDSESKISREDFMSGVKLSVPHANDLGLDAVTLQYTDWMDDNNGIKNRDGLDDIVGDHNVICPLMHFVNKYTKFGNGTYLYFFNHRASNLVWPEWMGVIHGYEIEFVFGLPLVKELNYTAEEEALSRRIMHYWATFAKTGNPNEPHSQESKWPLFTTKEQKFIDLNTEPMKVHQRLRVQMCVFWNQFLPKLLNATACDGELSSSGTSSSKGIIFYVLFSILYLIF

[6] = molecular target: T3, Acetylcholinesterase; experiment: Compound was evaluated for competitive inhibition constant of acetylcholinesterase (AChE) from Torpedo californica; set-up: species or system Tetronarce californica
[7] = molecular target: T1, Acetylcholinesterase
Description: Compound was evaluated for the inhibition of acetylcholinesterase (AChE) in bovine brain

[8] = molecular target: T2, Acetylcholinesterase; experiment: Compound was evaluated for the inhibition of acetylcholinesterase in electric eel
[9] = molecular target: T1, Acetylcholinesterase; remark: listed apart in the source
[10] = molecular target: T3, Acetylcholinesterase
Description: Compound was evaluated for the inhibition of acetylcholinesterase (AChE) in Torpedo californica

Row | Compound | IC50 [1] [µM] | IC50 [2] [µM] | KI' [3] [µM] | IC50 [4] [µM] | IC50 [5] [µM] | Ki [6] [µM] | IC50 [7] [µM] | IC50 [8] [µM] | IC50 [9] [µM] | IC50 [10] [µM]
1 | CN(C)c1ccc(CC(=O)NCCCCCCCCNC23CC4CC(CC(C4)C2)C3)cc1 | > 100 | > 100 | 10 | 28 | 10 | 5.5 | > 100 | – | – | –
2 | CN(C)c1ccc(CC(=O)NCCCCCCCNC23CC4CC(CC(C4)C2)C3)cc1 | – | – | 13 | – | – | 7 | – | – | – | –
3 | CN(C)c1ccc(CC(=O)NCCCCCCCCCNC23CC4CC(CC(C4)C2)C3)cc1 | – | – | 7 | – | – | 3.4 | – | – | – | –
4 | CN(C)c1ccc(CC(=O)NCCCCCCCCCCCNC23CC4CC(CC(C4)C2)C3)cc1 | – | – | 5.2 | – | – | 2.1 | – | – | – | –
5 | CN(C)c1ccc(CC(=O)NCCCCCCCCCCNC23CC4CC(CC(C4)C2)C3)cc1 | – | > 100 | 5.3 | – | 5.3 | 2.5 | 77 | 14 | 95 | –
6 | CN(C)c1ccc(CC(=O)NCCCCCCCCCCCCNC23CC4CC(CC(C4)C2)C3)cc1 | – | > 100 | 4.1 | 8.9 | – | 1.8 | 20 | – | 19 | 3.3
